This is an account of results in the supplement of paper PMC3621838.

± gives the standard deviation of the averaged measurements.

This series deals with HEK293 NF-kB-luciferase reporter cells. The experiment in a line: NF-kB luciferase reporter activity, robust Z-score vs plate median (robust Z-score (log luminescence)); higher = stronger NF-kB reporter activation. The note with it: TNF treatment time 8.5 h, transfection time 72 h. As for the experimental part: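 Primary screen of an Ambion Pre-miR miRNA mimic library (miRBase v8.0, 1.6 pmol/well, 384-well, duplicate) reverse-transfected into HEK293 cells stably expressing a 5x NF-kB firefly luciferase reporter. After 72 h the cells were treated with vehicle or TNF (40 ng/mL) for 8.5 h and luminescence was read (BriteLite). Raw luminescence was log-transformed and converted to a robust Z-score per plate: (x - plate median)/plate MAD. Sequence given is the mature miRNA strand of the double-stranded mimic.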
(A reporter such as luciferase makes a cellular process visible.)

With CUGUGCGUGUGACAGCGGCUGA, the “NF-kB luciferase reporter activity” value is, setting by setting: (TNF 0 ng/mL) 0.091 ± 0.43; (TNF 40 ng/mL) -2.3857 ± 0.00042.

CUUUCAGUCGGAUGUUUACAGC: the “NF-kB luciferase reporter activity” value runs as follows: (TNF 0 ng/mL) -0.449 ± 0.15; (TNF 40 ng/mL) 1 ± 0.025.

For CUUUUUGCGGUCUGGGCUUGC, the “NF-kB luciferase reporter activity” value is 0.334 ± 0.36 (TNF 0 ng/mL) and -0.65 ± 0.076 (TNF 40 ng/mL).

Regarding GAAGGCGCUUCCCUUUAGAGC, the “NF-kB luciferase reporter activity” value was -0.845 ± 0.78 (TNF 0 ng/mL) and -0.47 ± 0.02 (TNF 40 ng/mL).

On to GAAGGCGCUUCCCUUUGGAGU, for which the “NF-kB luciferase reporter activity” value was -0.702 ± 0.69 (TNF 0 ng/mL) and -0.567 ± 0.046 (TNF 40 ng/mL).

Regarding GAAGUGCUUCGAUUUUGGGGUGU, the “NF-kB luciferase reporter activity” value was -1.7 ± 0.2 (TNF 0 ng/mL) and -0.363 ± 0.1 (TNF 40 ng/mL).

Regarding GAAGUUGUUCGUGGUGGAUUCG, the “NF-kB luciferase reporter activity” value is -0.0557 ± 0.33 (TNF 0 ng/mL) and -0.602 ± 0.087 (TNF 40 ng/mL).

Take GAGGUUGUCCGUGGUGAGUUCG: the “NF-kB luciferase reporter activity” value runs as follows: (TNF 0 ng/mL) -0.468 ± 0.88; (TNF 40 ng/mL) -2.08 ± 0.48.

Consider GAGUGCCUUCUUUUGGAGCGU, for which the “NF-kB luciferase reporter activity” value (TNF 0 ng/mL) was -0.314 ± 0.76 and the “NF-kB luciferase reporter activity” value (TNF 40 ng/mL) is -0.822 ± 0.14.

GCAAAGCACACGGCCUGCAGAGA: the “NF-kB luciferase reporter activity” value by setting is: (TNF 0 ng/mL) -0.287 ± 0.28; (TNF 40 ng/mL) -0.658 ± 0.027.

As for GCACAUUACACGGUCGACCUCU, the “NF-kB luciferase reporter activity” value by setting is: (TNF 0 ng/mL) -0.263 ± 0.11; (TNF 40 ng/mL) 1.28 ± 0.042.

Take GCCCCUGGGCCUAUCCUAGAA: the “NF-kB luciferase reporter activity” value reads like this: (TNF 0 ng/mL) 1.22 ± 0.89; (TNF 40 ng/mL) 0.489 ± 0.046.

On to GCCUGCUGGGGUGGAACCUGG, for which the “NF-kB luciferase reporter activity” value is, setting by setting: (TNF 0 ng/mL) -0.469 ± 0.36; (TNF 40 ng/mL) 0.451 ± 0.051.

For GCUGCGCUUGGAUUUCGUCCCC, the “NF-kB luciferase reporter activity” value (TNF 0 ng/mL) was -0.0918 ± 0.13 and the “NF-kB luciferase reporter activity” value (TNF 40 ng/mL) came to 0.328 ± 0.013.

For the sequence GGAGAAAUUAUCCUUGGUGUGU, the “NF-kB luciferase reporter activity” value (TNF 0 ng/mL) came out at 0.189 ± 0.13 and the “NF-kB luciferase reporter activity” value (TNF 40 ng/mL) came to 0.256 ± 0.16.

Consider GGUAGAUUCUCCUUCUAUGAG, for which the “NF-kB luciferase reporter activity” value was -0.702 ± 0.69 (TNF 0 ng/mL) and -1.25 ± 0.063 (TNF 40 ng/mL).

For GUCAACACUUGCUGGUUUCCUC, the “NF-kB luciferase reporter activity” value by setting is: (TNF 0 ng/mL) -0.0513 ± 0.073; (TNF 40 ng/mL) -0.799 ± 0.029.

GUCAUACACGGCUCUCCUCUCU: the “NF-kB luciferase reporter activity” value (TNF 0 ng/mL) turned out to be 0.54 ± 0.4 and the “NF-kB luciferase reporter activity” value (TNF 40 ng/mL) was -1.19 ± 0.14.

With GUGAAAUGUUUAGGACCACUAG, the “NF-kB luciferase reporter activity” value worked out at 0.966 ± 1.4 (TNF 0 ng/mL) and 0.9884 ± 0.0031 (TNF 40 ng/mL).

As to GUGCCGCCAUCUUUUGAGUGU, the “NF-kB luciferase reporter activity” value was 0.919 ± 0.46 (TNF 0 ng/mL) and -1.45 ± 0.12 (TNF 40 ng/mL).

For GUGCCUACUGAGCUGAUAUCAGU, the “NF-kB luciferase reporter activity” value by setting is: (TNF 0 ng/mL) -0.791 ± 0.86; (TNF 40 ng/mL) 0.339 ± 0.13.

Regarding GUGUCUUUUGCUCUGCAGUCA, the “NF-kB luciferase reporter activity” value (TNF 0 ng/mL) worked out at 0.568 ± 0.32 and the “NF-kB luciferase reporter activity” value (TNF 40 ng/mL) turned out to be 0.168 ± 0.045.

Consider GUGUGUGGAAAUGCUUCUGC, for which the “NF-kB luciferase reporter activity” value was 0.447 ± 0.27 (TNF 0 ng/mL) and -1.04 ± 0.03 (TNF 40 ng/mL).

For UAAACGUGGAUGUACUUGCUUU, the “NF-kB luciferase reporter activity” value is, setting by setting: (TNF 0 ng/mL) -0.000139 ± 0.48; (TNF 40 ng/mL) 0.83 ± 0.16.

As for UAACACUGUCUGGUAAAGAUGG, the “NF-kB luciferase reporter activity” value by setting is: (TNF 0 ng/mL) 0.999 ± 0.35; (TNF 40 ng/mL) 1.415 ± 0.012.

On to UAACAGUCUCCAGUCACGGCC, for which the “NF-kB luciferase reporter activity” value reads like this: (TNF 0 ng/mL) -0.0296 ± 0.44; (TNF 40 ng/mL) -0.939 ± 0.1.

UAAGGCACCCUUCUGAGUAGA: the “NF-kB luciferase reporter activity” value (TNF 0 ng/mL) is -1.29 ± 0.15 and the “NF-kB luciferase reporter activity” value (TNF 40 ng/mL) is -3.27 ± 0.24.

With UAAGUGCUUCCAUGUUUGAGUGU, the “NF-kB luciferase reporter activity” value (TNF 0 ng/mL) is -1.48 ± 0.11 and the “NF-kB luciferase reporter activity” value (TNF 40 ng/mL) is -0.618 ± 0.12.

As for UAAGUGCUUCCAUGUUUUGGUGA, the “NF-kB luciferase reporter activity” value was -1.29 ± 0.15 (TNF 0 ng/mL) and -0.801 ± 0.13 (TNF 40 ng/mL).

With UAAUACUGCCGGGUAAUGAUGG, the “NF-kB luciferase reporter activity” value is, setting by setting: (TNF 0 ng/mL) 0.0214 ± 0.44; (TNF 40 ng/mL) 1.06 ± 0.17.

As for UAAUACUGCCUGGUAAUGAUGAC, the “NF-kB luciferase reporter activity” value (TNF 0 ng/mL) was determined as 0.744 ± 0.84 and the “NF-kB luciferase reporter activity” value (TNF 40 ng/mL) turned out to be 1.37 ± 0.22.

Regarding UAAUACUGUCUGGUAAAACCGU, the “NF-kB luciferase reporter activity” value (TNF 0 ng/mL) was -0.175 ± 0.95 and the “NF-kB luciferase reporter activity” value (TNF 40 ng/mL) was 0.65 ± 0.15.

In the case of UACAGUAUAGAUGAUGUACUAG, the “NF-kB luciferase reporter activity” value by setting is: (TNF 0 ng/mL) 0.343 ± 0.35; (TNF 40 ng/mL) 0.659 ± 0.17.

UACUCAGGAGAGUGGCAAUCACA: the “NF-kB luciferase reporter activity” value is 1.06 ± 0.93 (TNF 0 ng/mL) and -0.306 ± 0.029 (TNF 40 ng/mL).

In the case of UAGCACCAUCUGAAAUCGGUU, the “NF-kB luciferase reporter activity” value reads like this: (TNF 0 ng/mL) 0.81 ± 0.93; (TNF 40 ng/mL) -2.2 ± 0.16.

Regarding UAGCAGCGGGAACAGUUCUGCAG, the “NF-kB luciferase reporter activity” value (TNF 0 ng/mL) stood at 0.878 ± 0.18 and the “NF-kB luciferase reporter activity” value (TNF 40 ng/mL) came out at 0.834 ± 0.021.
